ChEMBL document CHEMBL1143046, “Synthesis and bioassay evaluation of 1-(4-substitutedideneaminooxymethyl)-phenyl-3-(2,6-difluorobenzoyl)ureas” (2007)

Key:
Format in all cases: functional
[1] = test system: Mythimna separata; assay: Insecticidal activity against Mythimna separata at 500 mg/kg
[2] = test system: Mythimna separata; assay: Insecticidal activity against Mythimna separata at 200 mg/kg
[3] = test system: Mythimna separata; assay: Insecticidal activity against Mythimna separata at 100 mg/kg
[4] = test system: Mythimna separata; assay: Insecticidal activity against Mythimna separata at 50 mg/kg
[5] = test system: Mythimna separata; assay: Insecticidal activity against Mythimna separata at 25 mg/kg
[6] = test system: Mythimna separata; assay: Insecticidal activity against Mythimna separata at 10 mg/kg
[7] = test system: Nephotettix cincticeps; assay: Insecticidal activity against Nephotettix cincticeps at 500 mg/kg
[8] = test system: Tetranychus urticae; assay: Acarcidal activity against Tetranychus urticae eggs at 200 mg/kg
[9] = test system: Tetranychus urticae; assay: Acarcidal activity against Tetranychus urticae larvae at 200 mg/kg

Compound | Activity [1] [%] | Activity [2] [%] | Activity [3] [%] | Activity [4] [%] | Activity [5] [%] | Activity [6] [%] | Activity [7] [%] | Activity [8] [%] | Activity [9] [%]
Cc1nn(-c2ccccc2)c(Cl)c1/C=N\OCc1ccc(NC(=O)NC(=O)c2c(F)cccc2F)cc1 | 100 | 40 | 0 | 0 | 0 | 0 | 62.5 |  | 
Cc1cc(C)cc(Oc2c(/C=N\OCc3ccc(NC(=O)NC(=O)c4c(F)cccc4F)cc3)c(C)nn2C)c1 | 100 | 100 | 50 | 0 | 0 | 0 | 69.7 |  | 
O=C(NC(=O)c1c(F)cccc1F)Nc1ccc(CO/N=C\c2ccc3c(c2)OCO3)cc1 | 100 | 100 | 100 | 100 | 100 | 50 | 33.3 | 11 | 10
CCCS/C(C)=N\OCc1ccc(NC(=O)NC(=O)c2c(F)cccc2F)cc1 | 75 | 15 | 10 |  | 10 | 0 |  |  | 
C/C(=N/OCc1ccc(NC(=O)NC(=O)c2c(F)cccc2F)cc1)c1ccc2c(c1)OCO2 | 100 | 100 | 100 | 90 | 70 | 15 |  | 10 | 7
CCS/C(=N/OCc1ccc(NC(=O)NC(=O)c2c(F)cccc2F)cc1)C(C)C | 100 | 100 | 50 |  | 0 | 0 | 41 | 76 | 43
Cc1ccc(Oc2c(/C=N\OCc3ccc(NC(=O)NC(=O)c4c(F)cccc4F)cc3)c(C)nn2C)cc1 | 30 | 0 | 0 | 0 | 0 | 0 | 50 |  | 
CC(C)(C)c1ccc(/C=N\OCc2ccc(NC(=O)NC(=O)c3c(F)cccc3F)cc2)cc1 | 30 | 0 |  |  |  |  | 18.2 |  | 
Cc1ccc(Oc2c(/C=N\OCc3ccc(NC(=O)NC(=O)c4c(F)cccc4F)cc3)c(C)nn2C)cc1C | 60 | 0 | 0 | 0 | 0 | 0 | 24.3 |  | 
C/C(=N/OCc1ccc(NC(=O)NC(=O)c2c(F)cccc2F)cc1)n1cncn1 | 100 | 100 | 100 | 50 | 0 | 0 | 19.2 | 12 | 10
O=C(NC(=O)c1c(F)cccc1F)Nc1ccc(CO/N=C(/c2ccc(Cl)cc2)C2CC2)cc1 [FLUCYCLOXURON] |  |  |  |  | 100 | 100 | 42.8 | 100 | 100
CC(C)Oc1ccc(/C=N\OCc2ccc(NC(=O)NC(=O)c3c(F)cccc3F)cc2)cc1 | 0 |  |  |  |  |  |  |  | 
O=C(NC(=O)c1c(F)cccc1F)Nc1ccc(CO/N=C\OCc2ccccc2)cc1 | 30 | 0 |  |  |  |  | 45.7 |  | 
N#C/C(=N/OCc1ccc(NC(=O)NC(=O)c2c(F)cccc2F)cc1)c1ccccc1 | 25 | 0 | 0 | 0 | 0 | 0 | 50 |  | 
CCCCS/C(=N/OCc1ccc(NC(=O)NC(=O)c2c(F)cccc2F)cc1)c1ccc(C(C)(C)C)cc1 | 80 | 65 | 40 | 25 | 0 | 0 | 56.3 |  | 
